Positions of bridges follow the written chain, without caps; N, C: chain ends. Non-standard residues stand in square brackets, D forms with d. No end group written: not given here.
Assays:
[1] = in vivo; cited from earlier work
[2] = free acid; cited from earlier work
ER stress = ER stress and inflammation after IP3R1 downregulation; assay type: cell-based
Text: FIGS. 22A-D. Downregulation of IP3R1 by epsins augments ER stress-mediated inflammation in Endothelium. (FIG. 22A) Deletion of IP3R1 auguments ER stress mediated by athero-prone substances. (FIG. 22B) Inhibition of ER stress by 4-PBA protected athero-prone substances mediated ER stress due to loss of IP3R1. (FIG. 22C) Loss of epsins auguments NF-kB signaling. (FIG. 22D) NF-kB augmentation can be prevented by ER stress inhibitor 4-PBA.

[3] = cited from earlier work
gliomas = conditions: before, at the time of or after tumor implantation; cited from earlier work
[4] = HFD-induced obesity model; assay type: in vivo; conditions: i.p., mice fed HFD
Text: FIGS. 33A-C. […] (FIG. 33A) Male and (FIG. 33B) Female mice, n=8 in each group; P<0.001. (FIG. 33C) Representative image of PBS or AP-UIM peptide administration for 3 months.
The inventors have tested a UIM peptide (AP-UIM) in HFD-induced obesity model.

[5] = system: Lewis lung carcinoma (LLC) tumors; experiment: Subcutaneous LLC tumor model; parameters: species or system mice; conditions: mouse, in vivo
Text: C56BL/6 mice and TRAMP prostate cancer models were obtained from Jackson Laboratory. SCID/NOD immune-deficient mice were purchased from Charles River Labs (Wilmington, Mass.). WT-Flk, EC-iDKO, EC-iDKO-Flk and EC-iDKO-Notch mice were generated by crossing conditional double knockout mice (EC-iDKO) with Flk-1^fl/fl or NICD^LSL mice as described in (FIGS. 13A-D) (Pasula et al., 2012; Tessneer et al., 2014). All animal protocols have been approved by the IACUC in Oklahoma Medical Research Foundation. Animal tumor models were established as follows: • (1) Subcutaneous Tumor Models (LLC, melanoma B16 and glioma U87/SCID): LLC, melanoma and glioma tumor models were established as previously described (Pasula et al., 2012). Synthetic peptides were administered at 10 mg/kg intravenously every second day beginning after small tumors were established (20-50 mm^3; approximately 12 days post implantation). Tumor volumes were monitored every other day until euthanized following IACUC tumor scoring system. • (2) TRAMP Prostate Tumor Model (Transgenic Adenocarcinoma of Mouse Prostate). […] Mortality rates were recorded. Prostate tumors were analyzed by weighing genitourinary tract (GU), H&E staining, IHC, IF staining and Western blotting as previously described (Pasula et al., 2012; Tessneer et al., 2013). Lymph nodes, lung, liver, spleen and bones were similarly analyzed for metastasis. • (3) B16 Melanoma Metastasis Model. […] Mice were sacrificed after 5 weeks and tissues (including lung, liver and lymph nodes, etc.) were harvested and analyzed for metastasis by gross morphology, H&E, IHC or IF staining, as well as Western blotting. • (4) Orthotopical Glioma Tumor Models (U87/SCID and GL261/C56BL/6). […] Tumors were monitored by MRI as previously described (Pasula et al., 2012). […] Tumor volume was analyzed by MRI every other day until the mice died or were euthanized following IACUC tumor scoring system. Mortality rates were recorded. […]

EGFR = target: T1, EGFR (Mus musculus, UniProt Q01279); experiment: Biochemical pulldown assay using ex vivo tumors; assay type: binding, mice; conditions: biotinylated peptide, ex vivo tumor lysates
T1 construct: from tissue; host or cells: LLC or GL261 glioma subcutaneous tumors from C57BL/6 mice
Procedure: (§1) (FIGS. 15A and 15C) LLC (FIG. 15A) or Glioma GL261 (FIG. 15C) subcutaneous tumors removed from C57BL/6 mice were homogenized in lysis buffer containing 50 mM Tris-HCl pH 7.5, 150 mM NaCl, 0.05% NP-40, 10% glycerol, 1× cocktail (Roche) and 20 mM NEM (N-ethylmaleimide). Lysate protein concentration was determined by BCA kit (Pierce). 2 mg of total lysate was co-incubated with 50 μg of either biotinylated UPI peptide, UPI mutant (UPI-Mut) peptide or control peptide. Neutri-Avidin beads (Invitrogen) were then added to pulldown biotinylated UPI or control peptide. These beads were subjected to two washes with lysis buffer and two washes with ½ lysis solutions. Afterwards, beads were boiled in 2× loading buffer and the supernatant was used for Western blot analysis of VEGFR2, PDGFR-β, EGFR and FGFR1; (FIGS. 15B and 15D) Quantification of peptide pulldown of VEGFR2 in LLC (FIG. 15B) and Glioma GL261 (FIG. 15D) tumors, n=5; P values are indicated in the figures.
(§2) LLC or GL261 glioma tumors was homogenized in lysis buffer containing 50 mM Tris-HCl pH7.5, 150 mM NaCl, 0.05% NP-40, 10% Glycerol, 1× cocktail, and 20 mM NEM. Protein concentration was determined by BCA kit (Pierce). 0.5-2 mg lysates were co-incubated with 100 μM biotinylated UPI or control peptides, followed by the addition of Neutri-Avidin beads (Invitrogen) for pulldown binding assay. Beads were washed twice with lysis buffer, then twice with 1:1 lysis buffer PBS. Beads were then boiled for 5 min in 2× sample loading buffer. Denatured proteins were subjected to Western blotting using anti-VEGFR2, anti-EGFR, anti-FGFR1 and anti-PDGFR-β antibodies.

FGFR1 = target: T2, FGFR1 (Mus musculus, UniProt P16092); experiment: Biochemical pulldown assay using ex vivo tumors; assay type: binding, mice; conditions: biotinylated peptide, ex vivo tumor lysates
T2 construct: from tissue; host or cells: LLC or GL261 glioma subcutaneous tumors from C57BL/6 mice
T2 sequence (P16092 22-822): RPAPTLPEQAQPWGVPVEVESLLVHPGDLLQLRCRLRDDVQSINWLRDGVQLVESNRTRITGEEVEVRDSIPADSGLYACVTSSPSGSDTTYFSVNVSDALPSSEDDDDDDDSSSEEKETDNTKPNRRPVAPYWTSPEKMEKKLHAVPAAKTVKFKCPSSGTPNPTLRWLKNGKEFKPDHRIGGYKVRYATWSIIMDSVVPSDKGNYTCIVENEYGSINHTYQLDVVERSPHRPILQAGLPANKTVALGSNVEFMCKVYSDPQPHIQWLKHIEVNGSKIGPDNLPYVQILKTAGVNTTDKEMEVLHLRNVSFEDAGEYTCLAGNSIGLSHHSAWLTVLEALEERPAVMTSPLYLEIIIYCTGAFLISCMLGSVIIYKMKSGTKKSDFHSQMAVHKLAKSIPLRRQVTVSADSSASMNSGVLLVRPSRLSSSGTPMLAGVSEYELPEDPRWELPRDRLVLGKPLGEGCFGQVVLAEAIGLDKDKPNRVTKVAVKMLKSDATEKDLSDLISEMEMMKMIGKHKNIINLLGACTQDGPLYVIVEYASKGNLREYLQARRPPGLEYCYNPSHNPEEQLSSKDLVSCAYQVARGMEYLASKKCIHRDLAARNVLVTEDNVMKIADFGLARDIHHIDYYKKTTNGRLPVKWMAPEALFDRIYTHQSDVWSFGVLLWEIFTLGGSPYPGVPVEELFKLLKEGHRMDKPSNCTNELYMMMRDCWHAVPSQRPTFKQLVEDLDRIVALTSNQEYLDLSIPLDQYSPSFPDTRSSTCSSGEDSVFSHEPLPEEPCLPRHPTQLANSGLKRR
Procedure: as §1, §2

PDGFR-β = target: T3, PDGFR-β (Mus musculus, UniProt P05622); experiment: Biochemical pulldown assay using ex vivo tumors; assay type: binding, mice; conditions: biotinylated peptide, ex vivo tumor lysates
T3 construct: from tissue; host or cells: LLC or GL261 glioma subcutaneous tumors from C57BL/6 mice
T3 sequence (P05622 32-1098): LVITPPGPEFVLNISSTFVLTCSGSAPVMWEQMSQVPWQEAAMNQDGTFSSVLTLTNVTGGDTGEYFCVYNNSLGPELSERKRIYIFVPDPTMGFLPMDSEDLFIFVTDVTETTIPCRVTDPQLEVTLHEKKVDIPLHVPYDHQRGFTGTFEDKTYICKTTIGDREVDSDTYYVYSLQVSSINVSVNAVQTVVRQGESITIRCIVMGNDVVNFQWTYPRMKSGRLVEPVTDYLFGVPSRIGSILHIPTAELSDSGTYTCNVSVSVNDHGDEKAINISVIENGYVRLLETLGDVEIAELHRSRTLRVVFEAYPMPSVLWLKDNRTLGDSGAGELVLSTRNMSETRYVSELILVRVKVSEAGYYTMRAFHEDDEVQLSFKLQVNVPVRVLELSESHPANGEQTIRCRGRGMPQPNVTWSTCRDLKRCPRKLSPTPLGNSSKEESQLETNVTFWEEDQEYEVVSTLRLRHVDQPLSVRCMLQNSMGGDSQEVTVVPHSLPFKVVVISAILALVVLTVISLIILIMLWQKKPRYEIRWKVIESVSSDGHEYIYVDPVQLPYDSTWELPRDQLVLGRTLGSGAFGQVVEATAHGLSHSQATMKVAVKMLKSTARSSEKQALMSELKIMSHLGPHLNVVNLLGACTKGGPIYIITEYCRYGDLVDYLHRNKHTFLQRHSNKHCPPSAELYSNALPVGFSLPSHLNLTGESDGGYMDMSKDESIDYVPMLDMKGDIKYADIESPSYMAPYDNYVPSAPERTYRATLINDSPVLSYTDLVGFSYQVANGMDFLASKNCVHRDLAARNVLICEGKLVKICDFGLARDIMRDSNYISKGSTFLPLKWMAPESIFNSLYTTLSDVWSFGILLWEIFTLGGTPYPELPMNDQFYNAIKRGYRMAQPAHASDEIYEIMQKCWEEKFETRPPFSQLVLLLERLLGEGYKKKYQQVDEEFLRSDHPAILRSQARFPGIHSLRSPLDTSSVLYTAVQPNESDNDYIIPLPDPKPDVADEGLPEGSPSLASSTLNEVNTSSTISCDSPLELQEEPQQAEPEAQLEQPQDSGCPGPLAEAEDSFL
Procedure: as §1, §2

VEGFR2 = target: T4, VEGFR2 (Mus musculus, UniProt P35918); experiment: Biochemical pulldown assay using ex vivo tumors; assay type: binding, mice; conditions: biotinylated peptide, ex vivo LLC or GL261 tumor lysates
T4 construct: from tissue; host or cells: LLC or GL261 glioma subcutaneous tumors from C57BL/6 mice
T4 sequence (P35918 20-1345): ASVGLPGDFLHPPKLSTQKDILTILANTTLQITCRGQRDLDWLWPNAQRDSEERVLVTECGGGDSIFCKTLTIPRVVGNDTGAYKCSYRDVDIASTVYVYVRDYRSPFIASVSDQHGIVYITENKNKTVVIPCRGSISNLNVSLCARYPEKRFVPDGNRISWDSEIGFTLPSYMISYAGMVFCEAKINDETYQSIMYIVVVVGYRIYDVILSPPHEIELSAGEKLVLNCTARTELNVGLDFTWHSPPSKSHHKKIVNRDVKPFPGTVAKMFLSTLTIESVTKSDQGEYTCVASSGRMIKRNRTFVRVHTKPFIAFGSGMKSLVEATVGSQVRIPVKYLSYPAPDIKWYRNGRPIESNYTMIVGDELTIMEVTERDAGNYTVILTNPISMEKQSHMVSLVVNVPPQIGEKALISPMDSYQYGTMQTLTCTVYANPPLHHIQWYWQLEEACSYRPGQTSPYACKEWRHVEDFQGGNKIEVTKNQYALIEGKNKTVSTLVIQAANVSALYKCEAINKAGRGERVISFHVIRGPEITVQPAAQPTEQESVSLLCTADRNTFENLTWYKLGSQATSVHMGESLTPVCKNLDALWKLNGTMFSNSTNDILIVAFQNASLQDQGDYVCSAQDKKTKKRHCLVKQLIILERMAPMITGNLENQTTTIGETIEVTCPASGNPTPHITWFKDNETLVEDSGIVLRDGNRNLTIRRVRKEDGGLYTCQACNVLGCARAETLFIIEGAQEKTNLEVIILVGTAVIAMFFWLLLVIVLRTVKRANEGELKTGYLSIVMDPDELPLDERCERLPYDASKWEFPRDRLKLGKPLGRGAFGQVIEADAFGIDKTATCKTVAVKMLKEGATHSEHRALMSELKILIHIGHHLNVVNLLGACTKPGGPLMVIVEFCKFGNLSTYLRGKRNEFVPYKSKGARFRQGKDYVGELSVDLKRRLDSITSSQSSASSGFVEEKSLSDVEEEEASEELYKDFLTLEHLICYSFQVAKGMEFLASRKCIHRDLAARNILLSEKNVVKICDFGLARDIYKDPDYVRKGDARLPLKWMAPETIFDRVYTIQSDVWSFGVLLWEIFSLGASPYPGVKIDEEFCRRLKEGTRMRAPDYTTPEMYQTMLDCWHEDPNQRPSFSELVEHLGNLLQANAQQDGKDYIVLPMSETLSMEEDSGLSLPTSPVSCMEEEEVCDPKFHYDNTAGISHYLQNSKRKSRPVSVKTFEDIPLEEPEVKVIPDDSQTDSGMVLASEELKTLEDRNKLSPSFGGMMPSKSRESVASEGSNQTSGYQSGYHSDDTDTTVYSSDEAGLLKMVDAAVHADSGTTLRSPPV
Procedure: as §1, §2

CC(C)(C)[N+]([O-])=Cc1ccc(S(=O)(=O)O)cc1S(=O)(=O)O [2,4-ds PBN, 2,4-disulfonyl phenyl-tert-butyl nitrone]
efficacy compared to PBN [1]: unexpected increase in efficacy as compared to PBN | toxicity compared to PBN [1]: marked and highly significant decrease in toxicity as compared to PBN | solubility in water [2]: greater than 1 gram/ml

O=C(O)CCCc1ccccc1 [4-PBA]
ER stress and inflammation (ER stress): inhibits ER stress and inflammation

CC(C)(C)[N+]([O-])=Cc1ccccc1 [PBN, phenyl N-tert-butyl nitrone]
tissue distribution ([3]; rat, in vivo): readily and rapidly distributed almost equally to all tissues | half-life ([3]; rats): about 132 minutes | tumor development (gliomas) (gliomas): able to control tumor development

AP-UIM: Antennapedia (penetratin) conjugated to the N-terminus of the epsin UIM peptide, SEQ ID NO: 40 (RQIKIWFQNRRMKWKKSGEEELQLQLALAMSKEE; not fully specified (some residues))
body weight gain [4]: significantly attenuated body weight gain

UPI-Mut: UPI bearing the Q9A/A13S/K16A triple mutation in the epsin UIM, SEQ ID NO: 43 ([dS]G[dE][dE][dE][dL][dQ][dL][dA][dL][dA][dL][dS][dM][dS][dA][dE][dE][dM]G[dC][dI][dK][dS][dK][dR][dK][dC][dR]G[dD][dK]G[dP][dD][dC]; disulfide 28-36 (inferred); not fully specified)
tumor growth in LLC tumor-bearing mice, variant peptides [5]: failed to inhibit tumor growth compared to mice treated with UPI peptide | co-precipitation of EGFR (EGFR): neither UPI nor UPI-Mut peptide pulled down | co-precipitation of FGFR1 (FGFR1): neither UPI nor UPI-Mut peptide pulled down | co-precipitation of PDGFR-β (PDGFR-β): neither UPI nor UPI-Mut peptide pulled down | binding to VEGFR2 in pulldown (VEGFR2): exhibited reduced binding to VEGFR2

Source: US11084852B2, “Ubiquitin interacting motif peptides as therapeutics” (OKLAHOMA MEDICAL RESEARCH FOUNDATION, priority 2015, dated 2021)
